Literature values in article PMC10034008, “Pretargeted imaging beyond the blood–brain barrier” (RSC Medicinal Chemistry, 2022).

Parameters: method as in ESI 3, 4
Conditions: irreversible tracers in their respective target regions; ref ESI 3, 4

SMILES | trapping rate k3
[11CH3]N1CN(c2ccccc2)C2(CCN(CCCC(=O)c3ccc(F)cc3)CC2)C1=O [N-[11C]methylspiperone] | 0.06 min⁻¹
CCC(=O)OC1CCN([11CH3])CC1 [[11C]PMP] | 0.03 to 0.35 min⁻¹
